Measured values as given in patent US12077503B2, “Substituted cyclic amides and their use as herbicides” (FMC CORPORATION, priority 2015, dated 2024).

What was measured:
Assay type in all cases: in vivo
[1] = system: sedge, umbrella (small-flower umbrella sedge, Cyperus difformis); assay: Test B flooded paddy test; conditions: Flood, 500 g ai/ha; 0 to 100 scale where 0 is no effect and 100 is complete control; 13 to 15 d
Procedure, shortened: (§1)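 Rating scale 0–100 (visual, vs untreated controls) after a 13–15 d greenhouse period; application to the flood layer, 3 cm above soil and maintained; plants at 2-leaf stage when treated.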

[2] = system: ducksalad (Heteranthera limosa); assay: Test B flooded paddy test; conditions: Flood, 500 g ai/ha; 0 to 100 scale where 0 is no effect and 100 is complete control; 13 to 15 d
Procedure, shortened: as §1

[3] = system: barnyardgrass (Echinochloa crus-galli); assay: Test B flooded paddy test; conditions: Flood, 500 g ai/ha; 0 to 100 scale where 0 is no effect and 100 is complete control; 13 to 15 d
Procedure, shortened: as §1

rice (Oryra sativa) = assay: Test B flooded paddy test; conditions: Flood, 500 g ai/ha; 0 to 100 scale where 0 is no effect and 100 is complete control; 13 to 15 d
Procedure, shortened: as §1

[4] = system: blackgrass (Alopecurus myosuroides); assay: Test A postemergence; conditions: postemergence; for Blackgrass plant response rating: 125 g ai/ha, visual injury rating on 0 to 100 scale (0 no effect, 100 complete control), approx. 10 d; for Plant response rating, Blackgrass: 500 g ai/ha, 0 to 100 scale, 0 no effect, 100 complete control
Procedure, shortened: (§2)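 Preemergence soil spray on seeded pots or post-emergence spray on 1–2 leaf plants, in loam–sand blend. Greenhouse ~10 d. Visual rating 0–100 against untreated plants.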

[5] = system: ragweed (common ragweed, Ambrosia elatior); assay: Test A postemergence; conditions: postemergence; for Ragweed plant response rating: 125 g ai/ha, visual injury rating on 0 to 100 scale (0 no effect, 100 complete control), approx. 10 d; for Plant response rating, Ragweed: 500 g ai/ha, 0 to 100 scale, 0 no effect, 100 complete control
Procedure, shortened: as §2

[6] = system: ryegrass, Italian (Italian ryegrass, Lolium multiflorum); assay: Test A postemergence; conditions: postemergence; for Ryegrass, Italian plant response rating: 125 g ai/ha, visual injury rating on 0 to 100 scale (0 no effect, 100 complete control), approx. 10 d; for Plant response rating, Ryegrass, Italian: 500 g ai/ha, 0 to 100 scale, 0 no effect, 100 complete control
Procedure, shortened: as §2

corn (Zea mays) = assay: Test A postemergence; conditions: postemergence; for Corn plant response rating: 125 g ai/ha, visual injury rating on 0 to 100 scale (0 no effect, 100 complete control), approx. 10 d; for Plant response rating, Corn: 500 g ai/ha, 0 to 100 scale, 0 no effect, 100 complete control
Procedure, shortened: as §2

[7] = system: pigweed (Amaranthus retroflexus); assay: Test A postemergence; conditions: postemergence; for Pigweed plant response rating: 125 g ai/ha, visual injury rating on 0 to 100 scale (0 no effect, 100 complete control), approx. 10 d; for Plant response rating, Pigweed: 500 g ai/ha, 0 to 100 scale, 0 no effect, 100 complete control
Procedure, shortened: as §2

Kochia (Kochia scoparia) [8] = assay: Test A postemergence; conditions: postemergence; for Kochia plant response rating: 125 g ai/ha, visual injury rating on 0 to 100 scale (0 no effect, 100 complete control), approx. 10 d; for Plant response rating, Kochia: 500 g ai/ha, 0 to 100 scale, 0 no effect, 100 complete control
Procedure, shortened: as §2

[9] = system: wheat (Triticum aestivum); assay: Test A postemergence; conditions: postemergence; for Wheat plant response rating: 125 g ai/ha, visual injury rating on 0 to 100 scale (0 no effect, 100 complete control), approx. 10 d; for Plant response rating, Wheat: 500 g ai/ha, 0 to 100 scale, 0 no effect, 100 complete control
Procedure, shortened: as §2

[10] = system: giant foxtail (Setaria faberii); assay: Test A postemergence; conditions: postemergence; for Foxtail, Giant plant response rating: 125 g ai/ha, visual injury rating on 0 to 100 scale (0 no effect, 100 complete control), approx. 10 d; for Plant response rating, Foxtail, Giant: 500 g ai/ha, 0 to 100 scale, 0 no effect, 100 complete control
Procedure, shortened: as §2

[11] = system: barnyardgrass (Echinochloa crus-galli); assay: Test A postemergence; conditions: postemergence; for Barnyardgrass plant response rating: 125 g ai/ha, visual injury rating on 0 to 100 scale (0 no effect, 100 complete control), approx. 10 d; for Plant response rating, Barnyardgrass: 500 g ai/ha, 0 to 100 scale, 0 no effect, 100 complete control
Procedure, shortened: as §2

[12] = system: Galium (catchweed bedstraw, Galium aparine); assay: Test A postemergence; conditions: postemergence; for Galium plant response rating: 125 g ai/ha, visual injury rating on 0 to 100 scale (0 no effect, 100 complete control), approx. 10 d; for Plant response rating, Galium: 500 g ai/ha, 0 to 100 scale, 0 no effect, 100 complete control
Procedure, shortened: as §2

[13] = system: ragweed (common ragweed, Ambrosia elatior); assay: Test A preemergence; conditions: for Plant response rating, Ragweed: 125 g ai/ha, preemergence, 0 to 100 scale (0 no effect, 100 complete control); for Ragweed plant response rating (0 to 100 scale, 0 is no effect, 100 is complete control): Preemergence, 500 g ai/ha, visual injury approx. 10 d
Procedure, shortened: as §2

[14] = system: ryegrass, Italian (Italian ryegrass, Lolium multiflorum); assay: Test A preemergence; conditions: for Plant response rating, Ryegrass, Italian: 125 g ai/ha, preemergence, 0 to 100 scale (0 no effect, 100 complete control); for Ryegrass, Italian plant response rating (0 to 100 scale, 0 is no effect, 100 is complete control): Preemergence, 500 g ai/ha, visual injury approx. 10 d
Procedure, shortened: as §2

[15] = system: pigweed (Amaranthus retroflexus); assay: Test A preemergence; conditions: for Plant response rating, Pigweed: 125 g ai/ha, preemergence, 0 to 100 scale (0 no effect, 100 complete control); for Pigweed plant response rating (0 to 100 scale, 0 is no effect, 100 is complete control): Preemergence, 500 g ai/ha, visual injury approx. 10 d
Kochia (Kochia scoparia) [16] = assay: Test A preemergence; conditions: for Plant response rating, Kochia: 125 g ai/ha, preemergence, 0 to 100 scale (0 no effect, 100 complete control); for Kochia plant response rating (0 to 100 scale, 0 is no effect, 100 is complete control): Preemergence, 500 g ai/ha, visual injury approx. 10 d
Procedure, shortened: as §2

[17] = system: giant foxtail (Setaria faberii); assay: Test A preemergence; conditions: for Plant response rating, Foxtail, Giant: 125 g ai/ha, preemergence, 0 to 100 scale (0 no effect, 100 complete control); for Foxtail, Giant plant response rating (0 to 100 scale, 0 is no effect, 100 is complete control): Preemergence, 500 g ai/ha, visual injury approx. 10 d
Procedure, shortened: as §2

[18] = system: barnyardgrass (Echinochloa crus-galli); assay: Test A preemergence; conditions: for Plant response rating, Barnyardgrass: 125 g ai/ha, preemergence, 0 to 100 scale (0 no effect, 100 complete control); for Barnyardgrass plant response rating (0 to 100 scale, 0 is no effect, 100 is complete control): Preemergence, 500 g ai/ha, visual injury approx. 10 d
Procedure, shortened: as §2

Structure (SMILES) | Plant response rating, Sedge, Umbrella [1] | Plant response rating, Ducksalad [2] | Plant response rating, Barnyardgrass [3] | Plant response rating, Rice (rice (Oryra sativa)) | Blackgrass plant response rating [4] | Plant response rating, Blackgrass [4] | Ragweed plant response rating [5] | Plant response rating, Ragweed [5] | Ryegrass, Italian plant response rating [6] | Plant response rating, Ryegrass, Italian [6] | Corn plant response rating (corn (Zea mays)) | Plant response rating, Corn (corn (Zea mays)) | Pigweed plant response rating [7] | Plant response rating, Pigweed [7] | Kochia plant response rating (Kochia (Kochia scoparia) [8]) | Plant response rating, Kochia (Kochia (Kochia scoparia) [8]) | Wheat plant response rating [9] | Plant response rating, Wheat [9] | Foxtail, Giant plant response rating [10] | Plant response rating, Foxtail, Giant [10] | further results
COc1c(F)ccc(NC(=O)C2C(=O)NCC2c2ccc(F)c(F)c2)c1F (stereo not drawn) [Compound 419] | 0 | 50 | 40 | 0 | 0 | 0 | 0 | 0 | 0 | 20 | 0 | 20 | 0 | 0 | 20 | 20 | 0 | 20 | 20 | 90 | Barnyardgrass plant response rating [11]: 60; Plant response rating, Barnyardgrass [11]: 80; Galium plant response rating [12]: 0; Plant response rating, Galium [12]: 0; Plant response rating, Ragweed [13]: 0; Ragweed plant response rating (0 to 100 scale, 0 is no effect, 100 is complete control) [13]: 0; Plant response rating, Ryegrass, Italian [14]: 0; Ryegrass, Italian plant response rating (0 to 100 scale, 0 is no effect, 100 is complete control) [14]: 0; Plant response rating, Pigweed [15]: 0; Pigweed plant response rating (0 to 100 scale, 0 is no effect, 100 is complete control) [15]: 20; Plant response rating, Kochia (Kochia (Kochia scoparia) [16]): 0; Kochia plant response rating (0 to 100 scale, 0 is no effect, 100 is complete control) (Kochia (Kochia scoparia) [16]): 0; Plant response rating, Foxtail, Giant [17]: 80; Foxtail, Giant plant response rating (0 to 100 scale, 0 is no effect, 100 is complete control) [17]: 90; Plant response rating, Barnyardgrass [18]: 60; Barnyardgrass plant response rating (0 to 100 scale, 0 is no effect, 100 is complete control) [18]: 90
Cc1ccc(F)c(NC(=O)C2C(=O)NCC2c2cccc(OC(F)F)c2)c1 (stereo not drawn) [Compound 423] | 0 | 20 | 0 | 0 | 0 | 0 | 0 | 0 | 0 | 0 | 0 | 0 | 0 | 0 | 0 | 0 | 0 | 0 | 0 | 0 | Barnyardgrass plant response rating [11]: 0; Plant response rating, Barnyardgrass [11]: 0; Galium plant response rating [12]: 0; Plant response rating, Galium [12]: 0; Plant response rating, Ragweed [13]: 0; Ragweed plant response rating (0 to 100 scale, 0 is no effect, 100 is complete control) [13]: 0; Plant response rating, Ryegrass, Italian [14]: 0; Ryegrass, Italian plant response rating (0 to 100 scale, 0 is no effect, 100 is complete control) [14]: 0; Plant response rating, Pigweed [15]: 0; Pigweed plant response rating (0 to 100 scale, 0 is no effect, 100 is complete control) [15]: 0; Plant response rating, Kochia (Kochia (Kochia scoparia) [16]): 0; Kochia plant response rating (0 to 100 scale, 0 is no effect, 100 is complete control) (Kochia (Kochia scoparia) [16]): 0; Plant response rating, Foxtail, Giant [17]: 0; Foxtail, Giant plant response rating (0 to 100 scale, 0 is no effect, 100 is complete control) [17]: 0; Plant response rating, Barnyardgrass [18]: 0; Barnyardgrass plant response rating (0 to 100 scale, 0 is no effect, 100 is complete control) [18]: 0
